The values that follow come from PMC6591635, “Advancing the Therapeutic Potential of Indoleamides for Tuberculosis” (Antimicrobial Agents and Chemotherapy, 2019).

≈ marks a conversion by molar mass, not a printed value. Where “and” joins values, the source holds several entries; their conditions need not be identical. Equal values may be shown once. Read-outs that look alike come from different tables or passages of the source. Marks after values point to notes of the source that are not given here.

One may read the MIC as the lowest concentration that inhibits growth of the organism. As a reminder, the fraction unbound is free concentration divided by total concentration. Low readings indicate little free substance, high ones much free substance. One may read the ED50 as the midpoint of the dose-response relation. As a reminder, the Tmax is the time at which the peak concentration occurs.

Data set [1] concerns M. tuberculosis H37Rv. The data set is classed as in vivo, Mycobacterium tuberculosis.
Data set [2] concerns M. tuberculosis H37Rv. The following applies: M. tuberculosis; stated without method in this paper; cited from earlier work.
A short description of a further data set: in vitro. The following applies: mouse, plasma.
Data set [3] has as its system M. tuberculosis H37Rv. Put plainly: animal or person. The data set is classed as in vivo, Mycobacterium tuberculosis. The following applies: for Lung CFU burden compared with untreated controls: 10 mg/kg, 4 weeks of treatment, P < 0.05; for ED50: Mycobacterium tuberculosis, H37RV, in Mus musculus, inhaled or nasal, 672 h, read-out: 50% effective dose (ED50).
The nature of data set [4]: Single dose pharmacokinetic study in mice (oral formulations, i.v.). The data set is classed as in vivo, Swiss Webster mice. The following applies: mouse. How it is done: To enhance oral bioavailability, we developed a novel formulation for compound 2 in propylene glycol (PG):Tween 80 (4:1, vol/vol). We compared the bioavailability of this new formulation with a previously reported formulation using 0.5% (wt/vol) carboxymethyl cellulose (CMC) ([19]). For oral (p.o.) administration, compound 2 was prepared in either formulation at 1 mg/ml of homogeneous suspension to achieve a 10-mg/kg dose level. For intravenous (i.v.) injection, a 0.22-mg/ml solution of compound 2 in PG:Tween 80:5% glucose at 20:10:70 (vol/vol/vol) was used. Five-week-old male Swiss Webster mice were randomly assigned to time points (3 mice per arm per time point). Serial blood samples of approximately 30 μl were collected at 0.25, 0.5, 1, 2, 4, 8, and 24 h after a single p.o. dose; and at 0.083, 0.33, 1, 2, 4, 8, and 24 h after a single i.v. dose. Plasma was harvested and stored at −80°C until analysis. Plasma samples were analyzed for compound 2 using liquid chromatography-tandem mass spectrometry (LC-MS/MS), with a limit of quantification of 1.05 ng/ml. Estimation of pharmacokinetic parameters was conducted using noncompartmental analysis with WinNonlin software (Phoenix 6.3).

Data set [5] deals with M. tuberculosis H37Rv. Also noted: method as in PMID 27275668. The following applies: 4 weeks of treatment, 0.5% (wt/vol) CMC formulation, previous study; cited from earlier work.
Data set [6] concerns M. tuberculosis H37Rv. Put plainly: Field emission scanning electron microscopy of cell morphology (dimples per 100 bacilli). The data set is classed as cell-based, Mycobacterium tuberculosis. The following applies: 24 hours of treatment, FESEM; for Cell morphology (dimples per 100 cells, deformed bacilli): 10× MIC.
[7] abbreviates: 50 mg/kg, 4 weeks of treatment, PG:Tween 80 formulation.
The mark [8] stands for this setting: male, Swiss Webster, in vivo, po, 10 mg/kg.

In the case of `C[C@@H]1[C@H]2C[C@@H](C[C@H]1NC(=O)c1cc3c(F)cc(F)cc3[nH]1)C2(C)C` [compound 2], in the data set with M. tuberculosis H37Rv [1] (setting [7]), the “Lung CFU count lower than that of positive control ethambutol at 100 mg/kg” value turned out to be 1.2 log and the “Mean lung CFU count lower than that of untreated controls” value was 4.66 log. Also, in the data set on M. tuberculosis H37Rv [1] ([…], compound 2 in PG:Tween 80), the “Lung CFU counts, Week 2” value is on record as 3.40 (NA)^b^,^c and the “Lung CFU counts, Week 4” value was 2.82 (0.34)^b. The MIC in the data set with M. tuberculosis H37Rv [2] was 4 ng/mL (≈ 0.012 µM). This compound also had a fraction unbound in “in vitro” of 0.032. Moreover, in the data set on M. tuberculosis H37Rv [3], the “Lung CFU burden compared with untreated controls” value is given as “significantly reduced the lung CFU burden” and the ED50 was 28.9 mg/kg. In data set [4] (10 mg/kg p.o., PG:Tween 80 formulation (suspension)), the “F (relative bioavailability)” value is 96%. For the same compound, the F in data set [4] (Swiss Webster, in vivo) is on record as 22%. Besides, in data set [4] (male, Swiss Webster, in vivo), the “F (relative bioavailability)” value came out at 22% and the “Time for which plasma concentration of free compound exceeded the MIC postdose” value was 24 h. In addition, in data set [4] (setting [8]), the “Increase in relative bioavailability compared with the CMC formulation” value came to 74% and the Tmax was 1.00 ± 0.00 h. The Tmax in data set [4] (male, Swiss Webster, in vivo, po, 10 mg/kg, Tmax) stood at 1.25 ± 1.06 h. Further, the “Lung CFU counts higher than positive control ethambutol at 100 mg/kg” value in the data set with M. tuberculosis H37Rv [5] is on record as 2.0 log.
Turning to `CC1(C)CCC(NC(=O)c2cc3c(Cl)cc(Cl)cc3[nH]2)CC1` [compound 3], in the data set on M. tuberculosis H37Rv [3], the “Lung CFU burden compared with untreated controls” value is listed as “did not” and the ED50 was determined as 43 mg/kg. In the data set with M. tuberculosis H37Rv [3] (in vivo), the “Lung CFU, D28” value is 7.05±0.09 and 6.99±0.19 and 5.66±0.14 and 4.15±0.06 and 3.65±0.11.
For the compound `CC[C@@H](CO)NCCN[C@@H](CC)CO` [ethambutol, reference compound], the “Lung CFU counts, Week 2” value with M. tuberculosis H37Rv [1] ([…], compound 2 in PG:Tween 80) was 4.34 (0.25)^b; in the data set with M. tuberculosis H37Rv [1] (in vivo), 3.56 (0.26)^b. For the same compound, the “Lung CFU counts, Week 4” value in the data set with M. tuberculosis H37Rv [1] ([…], compound 2 in PG:Tween 80) was 5.60 (0.24)^b; with M. tuberculosis H37Rv [1] (in vivo), 4.02 (0.28)^b.
Consider `Cc1cc(C)c2cc(C(=O)NC3CCCCCCC3)[nH]c2c1` [compound 1], for which, in the data set with M. tuberculosis H37Rv [6] (1× and 10× MIC), the “Cell morphology (unhealthy cells: dimples at poles and septum, wrinkled cell surface) versus untreated” value was “significantly higher number of unhealthy cells”. In addition, the “Cell morphology (dimples per 100 cells, deformed bacilli)” value with M. tuberculosis H37Rv [6] is given as “higher rate of deformed bacilli than 1× MIC”.
Take `NNC(=O)c1ccncc1` [isoniazid, reference compound]: the “Cell morphology (dimples per 100 cells, deformed bacilli)” value with M. tuberculosis H37Rv [6] is recorded as “more dimples per 100 cells than no treatment, but the difference did not reach statistical significance”.
